This is an account of results in US20180289692A1, “TLR MODULATORS AND METHODS OF USE” (CELGENE CORPORATION, priority 2015, published 2018).

The subject of data set [1] is human PBMCs. Put plainly: IL-1β secretion from NOD2 ligand L18-MDP stimulated human PBMCs. It is filed as cell-based. As to conditions: L-18 MDP 100 ng/ml, FIG. 19. On the procedure:
PBMCs were isolated from 3 donors of buffy coat (Blood Center of NY) using density gradient centrifugation. The PBMCs were resuspended in RPMI-1640 media supplemented with 10% FBS, 2 mM L-glutamine and 100 units/ml Penicillin and 100 μg/ml Streptomycin. The cells were plated in 96-well flat bottom plates at 250,000 cells/well. […] After 1 hr, the cells were stimulated with and without L-18 MDP at 100 ng/ml (Invivogen, San Diego, Calif.) or 1 ng/ml LPS (Sigma, St. Louis, Mo.). The cells were then incubated for 24 hrs at 37° C., 5% CO2. All compounds or ODNs were resuspended in endotoxin-free water. After 24 hrs, the supernatant was collected and analyzed for cytokine production. The supernatants were analyzed in duplicate for cytokine production in a magnetic multi-plex bead format using the MagPix instrument (Millipore, Billerica, Mass.). IL-1β was tested using a bead-based human cytokine/chemokine kit (Millipore, Cat# HCYTOMAG-60K-09). The manufacturer's procedures were followed accordingly. Data analysis was performed using Milliplex Analyst Software (Millipore).

Another data set has as its target T1, NOD2 (Homo sapiens, UniProt Q9HC29).
T1 construct: host or cells: HEK-Blue NOD2 cells
The following applies: HEK-Blue NOD2 cells; cited from earlier work.

For data set [2], the system named is human PBMCs. Put plainly: Cytokine production by human PBMCs treated with ODNs, MagPix Multi-Plex. The data set is classed as cell-based. The following applies: for IFN-γ / IL-1β / IL-6 / IL-10 / IL-12p40 / IP10 / TNF-α: human PBMC, 24 hrs. On the procedure: PBMC from 3 donors were isolated from Buffy Coat (Blood Center of NY). The cells were washed with PBS and re-suspended in RPMI-1640 Media with 5% Human AB Serum, 1% Pen/Strep and 2 mM L-glutamine. The cells were then plated in 96-well plates at 250,000 cells/well. […] After 24 hrs, the supernatant was harvested and tested for cytokine production using MagPix Multi-Plex Technology. The following cytokines were tested: IL-6, IL-10, IL-12p40, IFN-α, IFN-γ, IP-10, IL-1β and TNF-α.

Data set [3] deals with human PBMCs. Put plainly: IL-1β secretion from human PBMCs by ELISA (inflammasome activation). The following applies: 24 hours, FIG. 15. The data set is classed as cell-based. A general note: An ELISA detects its analyte on a solid surface through an enzyme-linked reagent.
The test system of data set [4] is human pDCs. Kind of data set: Intracellular IL-10, TGF-β1 and IDO expression in CCR6+CD123+ human pDCs by FACS. It is filed as cell-based. As to conditions: 24 hrs, FIG. 2A. An excerpt: To evaluate intracellular IL-10, TGFβ 1 and IDO expression in human pDCs, the cells were first stained with PECY-7-labeled anti-human CCR6 mAb (BD Biosciences), PerCP-Cy5.5 labeled anti-human CD123 mAb (BD Biosciences). Stained cells were then fixed and permeabilized using a Cytofix/Cytoperm kit (BD Biosciences) according to the manufacturer's instructions and stained with PE-labeled anti-human IDO (Biolegend), APC-labeled anti-human IL-10 mAb and FITC-labeled anti-human TGF-β1 (BD Biosciences), or isotype-matched control mAbs. The stained cells were acquired by FACSCanto using the FACSDiva software. FACS analysis was performed using FlowJo software. Single, viable cells in the CCR6+CD123+ pDC gates were analyzed. The flow cytometric results are expressed as the percentage and MFI of IL-10-, TGF-β1- or IDO-expressing cells in each gate. Results are expressed as the mean±SEM of cells quantified.
IL10 was alternatively measured in cellular supernatants by ELISA using standard protocols.

The test system of data set [5] is human pDCs. Put plainly: Surface ICOS-L and PD-L1 expression in CCR6+CD123+ human pDCs by FACS. The data set is classed as cell-based. As to conditions: human pDCs, 24 hrs, FIG. 2B. The method, then: To evaluate surface ICOS-L, PD-L1 expression in the CCR6+CD123+ pDC cell subsets, PBMCs were incubated on ice in the presence of Fc-Block (BD Pharmingen) for 20 minutes, washed, and incubated with antibodies specific for surface molecules or isotype-matched control mAbs. APC-labeled anti-human ICOS-L mAb were purchased from BioLegend, PECY-7-labeled anti-human CCR6 mAb, FITC-labeled anti-human PD-L1 mAb and PerCP-Cy5.5 labeled anti-human CD123 mAb were purchased from BD Biosciences. The stained cells were then subjected to FACS (FACSCanto, BD Biosciences) using FACSDiva software. FACS analysis was performed using FlowJo software. Single, viable cells in the CCR6+CD123+ pDC gates were analyzed. The flow cytometric results are expressed as the percentage and MFI of ICOSL-, or PD-L1-expressing cells in each gate.
pDCs were isolated and ICOS-L expression was analyzed as described in Example 2.
On the technique in general: A flow cytometer gives signals particle by particle.

Data set [6] has as its system CD19+ B-cells in human PBMCs. Put plainly: B-cell activation in human PBMCs, CD86 expression on CD19+ B-cells by FACS. It is filed as cell-based. The following applies: 24 h, FIG. 7. On the procedure: PBMC were incubated on ice in the presence of Fc-Block (BD Pharmingen) for 20 minutes, washed, and incubated with antibodies specific for surface molecules or isotype-matched control mAbs. APC-Cy7 labeled anti-human CD19 mAb and PE-labeled anti-human CD86 mAb were purchased from BioLegend. The stained cells were then subjected to FACS (FACSCanto, BD Biosciences) using the FACSDiva software. FACS analysis was performed using FlowJo software. Single, viable cells in the CD19+ B-cells gates were used for analysis. The flow cytometric results are expressed as the percentage of CD86-expressing cells (FIG. 7A) as the mean fluorescence intensity (MFI) of CD86-expressing cells in each gate (FIG. 7B).

Oligonucleotides are written 5' to 3', each unit as a sugar letter and its base; * is a phosphorothioate linkage, no mark a phosphodiester; rarer units and linkages stand in square brackets, end groups in braces. Plain capitals give the bases only. d = 2'-deoxy (DNA)

T1 sequence (Q9HC29 whole entry, species assumed): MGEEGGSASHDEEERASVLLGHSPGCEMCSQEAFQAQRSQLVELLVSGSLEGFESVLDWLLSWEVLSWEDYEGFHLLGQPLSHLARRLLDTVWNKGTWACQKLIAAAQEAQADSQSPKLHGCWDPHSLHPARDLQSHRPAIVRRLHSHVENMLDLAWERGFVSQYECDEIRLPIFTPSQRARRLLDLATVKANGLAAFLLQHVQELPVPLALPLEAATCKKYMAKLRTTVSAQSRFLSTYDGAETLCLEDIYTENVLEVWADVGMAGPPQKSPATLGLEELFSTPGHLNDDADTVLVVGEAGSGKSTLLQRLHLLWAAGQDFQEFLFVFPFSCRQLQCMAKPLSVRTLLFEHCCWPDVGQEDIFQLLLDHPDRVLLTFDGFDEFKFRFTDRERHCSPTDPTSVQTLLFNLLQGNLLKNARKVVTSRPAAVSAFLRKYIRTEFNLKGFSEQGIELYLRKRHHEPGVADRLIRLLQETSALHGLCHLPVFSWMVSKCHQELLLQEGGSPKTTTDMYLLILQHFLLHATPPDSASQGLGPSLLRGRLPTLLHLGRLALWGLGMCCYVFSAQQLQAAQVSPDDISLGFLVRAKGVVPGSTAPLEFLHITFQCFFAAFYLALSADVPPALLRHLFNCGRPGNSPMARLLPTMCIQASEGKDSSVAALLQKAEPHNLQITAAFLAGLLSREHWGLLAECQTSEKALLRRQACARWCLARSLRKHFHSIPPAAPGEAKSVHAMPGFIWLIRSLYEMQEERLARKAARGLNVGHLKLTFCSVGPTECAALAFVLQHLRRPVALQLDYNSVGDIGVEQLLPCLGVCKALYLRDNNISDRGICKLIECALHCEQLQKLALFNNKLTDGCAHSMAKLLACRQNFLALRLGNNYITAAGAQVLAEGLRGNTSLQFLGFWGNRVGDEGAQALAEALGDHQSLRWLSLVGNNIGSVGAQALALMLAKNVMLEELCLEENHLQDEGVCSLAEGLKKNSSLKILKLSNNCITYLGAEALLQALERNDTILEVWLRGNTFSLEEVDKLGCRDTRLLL

On to `CCCCCCCCCCCCCCCCCC(=O)OCC1OC(O)C(NC(C)=O)C(OC(C)C(=O)NC(C)C(=O)NC(CCC(=O)O)C(N)=O)C1O` [L-18 MDP], for which the “stimulation of IL-1β secretion from human PBMCs” value with human PBMCs [1] is reported as “about 51 fold”. In addition, at NOD2, the “more efficient NF-κB activator than MDP” value is reported as 10 fold.
On to “ODN301C: 5′-GTAGCCCCATCACCCAGCAGC-3′, fully PS, GC-containing (DNA dG*dT*dA*dG*dC*dC*dC*dC*dA*dT*dC*dA*dC*dC*dC*dA*dG*dC*dA*dG*dC)”, for which the “IFNα secretion from PBMCs” value in the data set with human PBMCs [2] (any tested concentration between 0.01 μM and 10 μM, FIG. 25) is given as “not found to induce”. In the data set with human PBMCs [2] (high-dose ODN 10 μM), the IFN-γ was 0 pg/mL, the IL-1β is 1.9 pg/mL, the IL-6 was found to be 3.3 fold change and the IL-10 came to 1 fold change. In addition, in the data set on human PBMCs [2] (high-dose ODN 10 μM), the IL-12p40 was determined as 0.8 pg/mL, the IP10 was 0.25 fold change and the TNF-α was determined as 2.8 fold change. Moreover, in the data set with human PBMCs [2] (low-dose ODN 0.1 μM), the IFN-γ is 0 pg/mL, the IL-1β was 0.1 pg/mL, the IL-6 came to 1.3 fold change and the IL-10 was found to be 1 fold change. In the data set on human PBMCs [2] (low-dose ODN 0.1 μM), this molecule came in with an IL-12p40 of 0 pg/mL, an IP10 of 1.1 fold change and a TNF-α of 1.1 fold change. For the same molecule, the IL-1β induction entry in the data set on human PBMCs [3] is reported as “induce”. Besides, in the data set with human pDCs [4], the TGF-β1 protein induction result was “can induce”. Also, the PD-L1 protein induction entry in the data set with human pDCs [5] is “can induce”.
Consider “ODN2137: 5′-TGCTGCTTTTGTGCTTTTGTGCTT-3′, fully PS, GC-containing (DNA dT*dG*dC*dT*dG*dC*dT*dT*dT*dT*dG*dT*dG*dC*dT*dT*dT*dT*dG*dT*dG*dC*dT*dT)”, for which the “B-cell activation (CD86 upregulation)” value in data set [6] is on record as “Stronger”.
